{
  "source": "patent US20240108722A1",
  "about": "“TUMOR-INFILTRATING LYMPHOCYTES WITH MEMBRANE BOUND INTERLEUKIN 15 AND USES THEREOF” (OBSIDIAN THERAPEUTICS, INC., priority 2021, published 2024)",
  "tested_on": "regulated mbIL15 TILs",
  "test": "ACZ regulation of IL15 expression and signaling, phospho-flow cytometry-based assay",
  "type": "cell-based, human",
  "conditions": "18 hours",
  "procedure": "Pre-REP TILs were prepared similarly to the methods of Example 1-3 and 9, and unengineered and mbIL15 TIL generated accordingly as described in Examples 1-3 and 9. Engagement of the IL15 signaling pathway results in phosphorylation of signal transducers downstream, including the transcription factor protein STAT5 and ribosomal protein S6. […] Next, the regulated mbIL15 TILs were regulated for 18 hours in the presence of a range of concentrations of ACZ including 0.1, 1, 2.5, 5, 10, 25, 100 as well as vehicle control. The regulated mbIL15 TILs were then collected for staining and FACS analysis.\nBriefly, cells were stained using antibodies for CD3, CD4, CD8, IL15 and a Live/Dead marker. Then cells were fixed in 2% formaldehyde (BD Cytofix) and permeabilized using a methanol-based buffer (BD Phospho Perm III Buffer) before staining with antibodies specific for phosphorylated STAT5 (Biolegend) and S6 (Cell Signaling Technology). Cells were acquired on the BD Symphony and analyzed using FlowJo software.\nWith increasing concentrations of ACZ expression of mbIL15 also increases, plateauing at around 10-25 μM of ACZ. FIG. 9A. […] FIGS. 9B-E and FIG. 10.",
  "data": [
    {"smiles": "CC(=O)Nc1nnc(S(N)(=O)=O)s1", "note": "[ACZ, acetazolamide]", "values": [
      {"measurement": "staining intensity of pSTAT5 and pS6", "setting": "0.1-100 μM ACZ, regulated mbIL15 TILs", "value": "increased with higher concentrations of ACZ"},
      {"measurement": "ACZ concentration at which mbIL15 expression plateaus", "setting": "regulated mbIL15 TILs from four human donors", "value": "10 to 25", "unit": "µM"}
    ]}
  ]
}
